Assay results reported in patent US20250241891A1, “TREATMENT OF ANXIETY” (GH RESEARCH IRELAND LIMITED, priority 2022, published 2025).

Columns and labels:
[1] = Pharmacokinetics of 5-MeO-DMT and bufotenine after inhalation; format: in vivo, human
Experimental: Blood samples were obtained at 1; 2; 4; 7; 10; 15; 20; 30; 45 min and 1; 1.5; 2; 3; 4 hours after administration.
PK parameters were generated by algebraic analysis of the concentration versus time plots for each individual. The analysis was carried out using the software Phoenix WinNonlin 6.3.

[2] = system: patients with treatment-resistant major depressive disorder (TRD); test: Phase 1/2 clinical trial of inhaled 5-MeO-DMT in TRD (MADRS, BPRS, safety); conditions: for patients experiencing at least one ADR: n=4, all ADRs mild and resolved spontaneously
Experimental: Patients were assigned to different groups. In the context of the present invention, the group who received a single, 12 mg dose and the group who underwent an intra-day individualized dosing regimen (IDR) that allowed for multiple, escalating doses (6 mg, 12 mg and 18 mg) within a single day, driven by the intensity of the patient-reported psychedelic experience are of interest.
The data gathered include the assessment of the treated patients against several scales including the Montgomery-Åsberg Depression Rating Scale (MADRS) and the Brief Psychiatric Rating Scale (BPRS).
This trial was designed in two parts. Part A was an open-label, single-arm, single-dose Phase 1 trial with two dose levels (12 mg (n=4) and 18 mg (n=4)). […] The primary endpoint of Part B was to assess the effects on the severity of depression, as assessed by the proportion of patients in remission on day seven after dosing, defined as a MADRS total score of less than or equal to 10.

[3] = TRD, IDR 6/12/18 mg inhaled, sum n=8, 2 h after last dose, baseline 26
[4] = TRD, IDR 6/12/18 mg inhaled, sum n=8, 2 h after last dose, baseline 28
[5] = TRD, IDR 6/12/18 mg inhaled, sum n=8, 3 h after last dose, baseline 37
[6] = TRD, IDR 6/12/18 mg inhaled, sum n=8, day 1, baseline 25
[7] = TRD, IDR 6/12/18 mg inhaled, sum n=8, day 1, baseline 26
[8] = TRD, IDR 6/12/18 mg inhaled, sum n=8, day 1, baseline 37
[9] = TRD, IDR 6/12/18 mg inhaled, sum n=8, day 7, baseline 25
[10] = TRD, IDR 6/12/18 mg inhaled, sum n=8, day 7, baseline 26
[11] = TRD, IDR 6/12/18 mg inhaled, sum n=8, day 7, baseline 30
[12] = TRD, IDR 6/12/18 mg inhaled, sum n=8, day 7, baseline 37
[13] = TRD, single 12 mg inhaled, sum n=4, 2 h after dose, baseline 13
[14] = TRD, single 12 mg inhaled, sum n=4, 2 h after dose, baseline 16
[15] = TRD, single 12 mg inhaled, sum n=4, 3 h after dose, baseline 18
[16] = TRD, single 12 mg inhaled, sum n=4, 3 h after dose, baseline 25
[17] = TRD, single 12 mg inhaled, sum n=4, day 1, baseline 12
[18] = TRD, single 12 mg inhaled, sum n=4, day 1, baseline 13
[19] = TRD, single 12 mg inhaled, sum n=4, day 1, baseline 16
[20] = TRD, single 12 mg inhaled, sum n=4, day 1, baseline 25
[21] = TRD, single 12 mg inhaled, sum n=4, day 7, baseline 12
[22] = TRD, single 12 mg inhaled, sum n=4, day 7, baseline 13
[23] = TRD, single 12 mg inhaled, sum n=4, day 7, baseline 16
[24] = TRD, single 12 mg inhaled, sum n=4, day 7, baseline 25

SMILES: COc1ccc2[nH]cc(CCN(C)C)c2c1 [5-MeO-DMT]
- detectability in the plasma ([1]; 3 hours after inhalation, whole dose range 6, 12, 18 mg): no longer detectable
- pharmacokinetic measurements with uptitration dosing schemes compared with single doses ([1]; inhalation, uptitration): Substantially similar results were obtained
- accumulation upon repeated administration ([1]; repeated inhalation within a time frame of 1 to 4 hours): No accumulation is observed
- patients experiencing at least one ADR ([2]; Part A, single 12 mg inhaled): 3 of 4
- SAEs ([2]; Part A, single 12 mg or 18 mg inhaled): No SAEs were reported
- patients experiencing at least one ADR ([2]; Part A, single 18 mg inhaled): 3 of 4
- SAEs ([2]; Part B, IDR 6/12/18 mg inhaled, n=8): No SAEs were reported
- MADRS Suicidal Thoughts score ([2]; TRD, IDR 6/12/18 mg inhaled, sum n=8, 2 h after last dose, baseline 11): 3
- MADRS Inner Tension percentage improvement [2, 3]: 58%
- MADRS Inner Tension score [2, 3]: 11
- MADRS Lassitude score ([2]; TRD, IDR 6/12/18 mg inhaled, sum n=8, 2 h after last dose, baseline 27): 10
- MADRS Pessimistic Thoughts percentage improvement [2, 4]: 75.00%
- MADRS Pessimistic Thoughts score [2, 4]: 7
- MADRS Concentration Difficulties score ([2]; TRD, IDR 6/12/18 mg inhaled, sum n=8, 2 h after last dose, baseline 30): 11
- MADRS Inability to Feel score ([2]; TRD, IDR 6/12/18 mg inhaled, sum n=8, 2 h after last dose, baseline 36): 12
- BPRS Emotional Withdrawal score ([2]; TRD, IDR 6/12/18 mg inhaled, sum n=8, 3 h after last dose, baseline 13): 8
- BPRS Blunted Affect score ([2]; TRD, IDR 6/12/18 mg inhaled, sum n=8, 3 h after last dose, baseline 15): 11
- BPRS Tension score ([2]; TRD, IDR 6/12/18 mg inhaled, sum n=8, 3 h after last dose, baseline 16): 11
- BPRS Guilt Feelings score ([2]; TRD, IDR 6/12/18 mg inhaled, sum n=8, 3 h after last dose, baseline 34): 14
- BPRS Anxiety percentage improvement [2, 5]: 49%
- BPRS Anxiety score [2, 5]: 19
- MADRS Suicidal Thoughts score ([2]; TRD, IDR 6/12/18 mg inhaled, sum n=8, day 1, baseline 11): 1
- BPRS Emotional Withdrawal score ([2]; TRD, IDR 6/12/18 mg inhaled, sum n=8, day 1, baseline 13): 8
- BPRS Blunted Affect score ([2]; TRD, IDR 6/12/18 mg inhaled, sum n=8, day 1, baseline 15): 8
- BPRS Tension score ([2]; TRD, IDR 6/12/18 mg inhaled, sum n=8, day 1, baseline 16): 11
- MADRS Reduced Sleep percentage improvement [2, 6]: 52%
- MADRS Reduced Sleep score [2, 6]: 12
- MADRS Inner Tension percentage improvement [2, 7]: 77%
- MADRS Inner Tension score [2, 7]: 6
- MADRS Lassitude score ([2]; TRD, IDR 6/12/18 mg inhaled, sum n=8, day 1, baseline 27): 5
- MADRS Pessimistic Thoughts score ([2]; TRD, IDR 6/12/18 mg inhaled, sum n=8, day 1, baseline 28): 4
- MADRS Concentration Difficulties score ([2]; TRD, IDR 6/12/18 mg inhaled, sum n=8, day 1, baseline 30): 1
- BPRS Guilt Feelings score ([2]; TRD, IDR 6/12/18 mg inhaled, sum n=8, day 1, baseline 34): 11
- MADRS Inability to Feel score ([2]; TRD, IDR 6/12/18 mg inhaled, sum n=8, day 1, baseline 36): 2
- BPRS Anxiety percentage improvement [2, 8]: 57%
- BPRS Anxiety score [2, 8]: 16
- MADRS Suicidal Thoughts score ([2]; TRD, IDR 6/12/18 mg inhaled, sum n=8, day 7, baseline 11): 3
- BPRS Emotional Withdrawal score ([2]; TRD, IDR 6/12/18 mg inhaled, sum n=8, day 7, baseline 13): 8
- BPRS Blunted Affect score ([2]; TRD, IDR 6/12/18 mg inhaled, sum n=8, day 7, baseline 15): 8
- BPRS Tension score ([2]; TRD, IDR 6/12/18 mg inhaled, sum n=8, day 7, baseline 16): 10
- MADRS Reduced Sleep percentage improvement [2, 9]: 64%
- MADRS Reduced Sleep score [2, 9]: 9
- MADRS Inner Tension percentage improvement [2, 10]: 54%
- MADRS Inner Tension score [2, 10]: 12
- MADRS Lassitude score ([2]; TRD, IDR 6/12/18 mg inhaled, sum n=8, day 7, baseline 27): 3
- MADRS Pessimistic Thoughts score ([2]; TRD, IDR 6/12/18 mg inhaled, sum n=8, day 7, baseline 28): 3
- MADRS Concentration Difficulties percentage improvement [2, 11]: 70.00%
- MADRS Concentration Difficulties score [2, 11]: 9
- BPRS Guilt Feelings score ([2]; TRD, IDR 6/12/18 mg inhaled, sum n=8, day 7, baseline 34): 10
- MADRS Inability to Feel score ([2]; TRD, IDR 6/12/18 mg inhaled, sum n=8, day 7, baseline 36): 6
- BPRS Anxiety percentage improvement [2, 12]: 54%
- BPRS Anxiety score [2, 12]: 17
- MADRS Suicidal Thoughts score ([2]; TRD, single 12 mg inhaled, sum n=4, 2 h after dose, baseline 8): 3
- MADRS Inner Tension percentage improvement [2, 13]: 85%
- MADRS Inner Tension score [2, 13]: 2
- MADRS Concentration Difficulties score [2, 14]: 7
- MADRS Inability to Feel score [2, 14]: 9
- MADRS Lassitude score [2, 14]: 10
- MADRS Pessimistic Thoughts percentage improvement [2, 14]: 50.00%
- MADRS Pessimistic Thoughts score [2, 14]: 8
- BPRS Blunted Affect score ([2]; TRD, single 12 mg inhaled, sum n=4, 3 h after dose, baseline 11): 8
- BPRS Emotional Withdrawal score ([2]; TRD, single 12 mg inhaled, sum n=4, 3 h after dose, baseline 13): 11
- BPRS Tension score ([2]; TRD, single 12 mg inhaled, sum n=4, 3 h after dose, baseline 14): 9
- BPRS Guilt Feelings percentage improvement [2, 15]: 50.00%
- BPRS Guilt Feelings score [2, 15]: 9
- BPRS Anxiety percentage improvement [2, 16]: 56%
- BPRS Anxiety score [2, 16]: 11
- MADRS Suicidal Thoughts score ([2]; TRD, single 12 mg inhaled, sum n=4, day 1, baseline 8): 5
- BPRS Blunted Affect score ([2]; TRD, single 12 mg inhaled, sum n=4, day 1, baseline 11): 6
- MADRS Reduced Sleep percentage improvement [2, 17]: 17%
- MADRS Reduced Sleep score [2, 17]: 10
- BPRS Emotional Withdrawal score [2, 18]: 8
- MADRS Inner Tension percentage improvement [2, 18]: 77%
- MADRS Inner Tension score [2, 18]: 3
- BPRS Tension score ([2]; TRD, single 12 mg inhaled, sum n=4, day 1, baseline 14): 6
- MADRS Concentration Difficulties score [2, 19]: 2
- MADRS Inability to Feel score [2, 19]: 1
- MADRS Lassitude percentage improvement [2, 19]: 100.00%
- MADRS Lassitude score [2, 19]: 0
- MADRS Pessimistic Thoughts score [2, 19]: 7
- BPRS Guilt Feelings score ([2]; TRD, single 12 mg inhaled, sum n=4, day 1, baseline 18): 5
- BPRS Anxiety percentage improvement [2, 20]: 76%
- BPRS Anxiety score [2, 20]: 6
- MADRS Suicidal Thoughts score ([2]; TRD, single 12 mg inhaled, sum n=4, day 7, baseline 8): 7
- BPRS Blunted Affect score ([2]; TRD, single 12 mg inhaled, sum n=4, day 7, baseline 11): 5
- MADRS Reduced Sleep percentage improvement [2, 21]: 50%
- MADRS Reduced Sleep score [2, 21]: 6
- BPRS Emotional Withdrawal score [2, 22]: 6
- MADRS Inner Tension percentage improvement [2, 22]: 62%
- MADRS Inner Tension score [2, 22]: 5
- BPRS Tension score ([2]; TRD, single 12 mg inhaled, sum n=4, day 7, baseline 14): 6
- MADRS Concentration Difficulties score [2, 23]: 3
- MADRS Inability to Feel score [2, 23]: 1
- MADRS Lassitude score [2, 23]: 3
- MADRS Pessimistic Thoughts percentage improvement [2, 23]: 50.00%
- MADRS Pessimistic Thoughts score [2, 23]: 8
- BPRS Guilt Feelings score ([2]; TRD, single 12 mg inhaled, sum n=4, day 7, baseline 18): 5
- BPRS Anxiety percentage improvement [2, 24]: 76%
- BPRS Anxiety score [2, 24]: 6
